# From ChEMBL document CHEMBL1201862, “PubChem BioAssay data set” (2004)
# Active and inactive are the calls of the source.
# What was measured:
# Jurkat = experiment: SAR Analysis of small molecule inhibitors of […] specific antigen receptor-induced NF-kB activation in a Jurkat cell line using a luminescence assay - Set 3. [Related pubchem assays (depositor defined):AID435022, AID435025, AID465]; format: functional, cell-based; conditions: Homo sapiens
# HEK293 [1] = experiment: SAR Analysis of small molecule inhibitors of B-cell specific antigen receptor-induced NF-kB activation in a HEK-293T cell line using a luminescence assay - Set 2. [Related pubchem assays (depositor defined):AID435022, AID435025, AID489021]; format: functional, cell-based; conditions: Homo sapiens
# HEK293 [2] = experiment: HEK293T cell viability loss, resazurin readout – resazurin fluorescence, cytotoxicity control for NF-kB activator project, SAR follow-up (AID 493251); format: functional, cell-based; conditions: Homo sapiens
# ORF 73 = ORF 73 (Human herpesvirus 8, UniProt O40947); experiment: KSHV LANA DNA-binding disruption – biochemical, fluorescence polarization, cherry-picked samples, dose response (AID 504725); parameters: species or system Human gammaherpesvirus 8;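 also: fluorescence polarization of a labeled DNA duplex reporting LANA DNA binding; potency is for inhibitors that block LANA binding to the DNA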
# Sequence of ORF 73 (O40947 whole entry, the tested form may be a part): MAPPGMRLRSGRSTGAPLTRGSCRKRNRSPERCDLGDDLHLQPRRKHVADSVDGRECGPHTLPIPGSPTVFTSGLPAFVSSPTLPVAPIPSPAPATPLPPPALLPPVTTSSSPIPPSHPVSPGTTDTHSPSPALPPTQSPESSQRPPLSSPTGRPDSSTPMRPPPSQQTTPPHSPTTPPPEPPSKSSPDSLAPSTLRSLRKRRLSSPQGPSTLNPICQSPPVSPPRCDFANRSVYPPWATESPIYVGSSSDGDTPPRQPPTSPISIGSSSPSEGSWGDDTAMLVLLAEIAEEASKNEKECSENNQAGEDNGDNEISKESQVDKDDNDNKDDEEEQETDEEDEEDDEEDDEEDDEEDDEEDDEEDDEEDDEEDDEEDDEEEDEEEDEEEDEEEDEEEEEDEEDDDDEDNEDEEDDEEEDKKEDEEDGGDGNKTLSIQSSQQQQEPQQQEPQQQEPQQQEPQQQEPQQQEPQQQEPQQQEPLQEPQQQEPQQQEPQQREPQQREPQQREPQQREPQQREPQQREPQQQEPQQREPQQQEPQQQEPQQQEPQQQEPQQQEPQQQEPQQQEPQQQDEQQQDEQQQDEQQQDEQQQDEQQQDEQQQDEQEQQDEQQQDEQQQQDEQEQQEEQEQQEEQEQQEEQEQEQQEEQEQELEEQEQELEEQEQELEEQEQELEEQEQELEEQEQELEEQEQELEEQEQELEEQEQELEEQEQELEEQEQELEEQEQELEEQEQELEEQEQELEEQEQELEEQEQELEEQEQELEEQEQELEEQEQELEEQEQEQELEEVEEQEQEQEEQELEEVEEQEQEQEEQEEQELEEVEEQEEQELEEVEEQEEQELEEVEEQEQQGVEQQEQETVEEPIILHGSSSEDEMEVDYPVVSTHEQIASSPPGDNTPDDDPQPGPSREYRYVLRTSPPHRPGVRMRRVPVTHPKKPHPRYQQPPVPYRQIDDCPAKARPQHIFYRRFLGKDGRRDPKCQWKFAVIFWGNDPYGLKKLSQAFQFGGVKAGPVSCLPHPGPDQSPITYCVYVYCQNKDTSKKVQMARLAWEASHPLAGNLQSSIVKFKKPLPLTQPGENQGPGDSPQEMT
# CHO = CHO cell viability loss, potency – luminescence, cytotoxicity control for TLR9-MyD88 binding inhibitor project, dose response (AID 588339); format: functional, cell-based, hamster; conditions: Cricetulus griseus;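 also: CHO cells stably coexpressing TLR9 and MyD88 fusions from primary screen; compound exposure lasted 48 hours before viability readout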
# [3] = biological target: UDP-galactopyranose mutase (Mycobacterium tuberculosis, UniProt P9WIQ1); experiment: Inhibitors of Mycobacterium tuberculosis UDP-galactopyranose mutase (UGM) enzyme Measured in Biochemical System Using Plate Reader - 2105-02_Inhibitor_Dose_CherryPick_Activity. [Related pubchem assays (depositor defined):AID504439]
# Sequence of UDP-galactopyranose mutase (P9WIQ1 whole entry): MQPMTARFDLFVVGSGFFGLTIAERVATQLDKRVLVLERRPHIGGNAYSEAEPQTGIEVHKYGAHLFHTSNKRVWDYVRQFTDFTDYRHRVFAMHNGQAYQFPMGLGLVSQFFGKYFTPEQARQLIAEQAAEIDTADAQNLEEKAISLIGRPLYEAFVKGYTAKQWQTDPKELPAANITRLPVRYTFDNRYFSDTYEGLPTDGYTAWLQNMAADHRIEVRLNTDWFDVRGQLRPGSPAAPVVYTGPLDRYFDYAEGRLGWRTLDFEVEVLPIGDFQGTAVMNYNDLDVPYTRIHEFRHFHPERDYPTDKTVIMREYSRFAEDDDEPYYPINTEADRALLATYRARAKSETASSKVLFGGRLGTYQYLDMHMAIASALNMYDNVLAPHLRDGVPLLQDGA
# Insulin-degrading enzyme [4] = biological target: T1, Insulin-degrading enzyme (Homo sapiens, UniProt P14735); experiment: recombinant IDE activation, cell-free – biochemical, fluorescence polarization, counter-screen for IDE activator project, dose response (AID 588681)
# T1 sequence (P14735 whole entry): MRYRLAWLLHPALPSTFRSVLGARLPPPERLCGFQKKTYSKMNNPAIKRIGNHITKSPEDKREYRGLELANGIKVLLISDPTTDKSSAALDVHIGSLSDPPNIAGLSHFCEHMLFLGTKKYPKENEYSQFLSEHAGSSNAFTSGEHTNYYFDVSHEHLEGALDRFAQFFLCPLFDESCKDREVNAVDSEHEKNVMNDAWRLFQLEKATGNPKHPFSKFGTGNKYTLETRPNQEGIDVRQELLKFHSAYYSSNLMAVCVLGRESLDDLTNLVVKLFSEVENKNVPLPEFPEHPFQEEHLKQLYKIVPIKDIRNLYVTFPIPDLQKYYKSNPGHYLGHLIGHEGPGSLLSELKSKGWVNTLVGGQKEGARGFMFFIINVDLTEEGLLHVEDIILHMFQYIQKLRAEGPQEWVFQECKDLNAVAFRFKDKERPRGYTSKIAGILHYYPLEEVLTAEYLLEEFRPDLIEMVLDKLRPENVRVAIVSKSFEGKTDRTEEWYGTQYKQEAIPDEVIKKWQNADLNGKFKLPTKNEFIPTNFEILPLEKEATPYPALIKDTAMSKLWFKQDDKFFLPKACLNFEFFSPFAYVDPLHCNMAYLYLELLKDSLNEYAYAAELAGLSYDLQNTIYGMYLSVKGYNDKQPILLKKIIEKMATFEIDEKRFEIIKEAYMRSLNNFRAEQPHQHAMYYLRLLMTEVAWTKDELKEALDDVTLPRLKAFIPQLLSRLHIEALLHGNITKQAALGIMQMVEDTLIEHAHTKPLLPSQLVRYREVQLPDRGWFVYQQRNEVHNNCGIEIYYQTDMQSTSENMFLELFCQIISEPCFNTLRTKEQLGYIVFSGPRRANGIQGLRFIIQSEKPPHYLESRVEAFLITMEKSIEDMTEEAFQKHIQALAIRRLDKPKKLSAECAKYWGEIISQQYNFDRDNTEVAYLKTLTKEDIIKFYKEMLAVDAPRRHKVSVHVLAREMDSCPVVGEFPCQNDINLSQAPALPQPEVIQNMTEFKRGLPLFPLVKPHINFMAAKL
# Keap1/Nrf2 = Keap1/Nrf2 (Homo sapiens, UniProt Q14145); experiment: disruptors of Keap1 binding to Nrf2 peptide – biochemical, fluorescence polarization, cherry-picked samples, dose response (AID 588683)
# Sequence of Keap1/Nrf2 (Q16236 whole entry): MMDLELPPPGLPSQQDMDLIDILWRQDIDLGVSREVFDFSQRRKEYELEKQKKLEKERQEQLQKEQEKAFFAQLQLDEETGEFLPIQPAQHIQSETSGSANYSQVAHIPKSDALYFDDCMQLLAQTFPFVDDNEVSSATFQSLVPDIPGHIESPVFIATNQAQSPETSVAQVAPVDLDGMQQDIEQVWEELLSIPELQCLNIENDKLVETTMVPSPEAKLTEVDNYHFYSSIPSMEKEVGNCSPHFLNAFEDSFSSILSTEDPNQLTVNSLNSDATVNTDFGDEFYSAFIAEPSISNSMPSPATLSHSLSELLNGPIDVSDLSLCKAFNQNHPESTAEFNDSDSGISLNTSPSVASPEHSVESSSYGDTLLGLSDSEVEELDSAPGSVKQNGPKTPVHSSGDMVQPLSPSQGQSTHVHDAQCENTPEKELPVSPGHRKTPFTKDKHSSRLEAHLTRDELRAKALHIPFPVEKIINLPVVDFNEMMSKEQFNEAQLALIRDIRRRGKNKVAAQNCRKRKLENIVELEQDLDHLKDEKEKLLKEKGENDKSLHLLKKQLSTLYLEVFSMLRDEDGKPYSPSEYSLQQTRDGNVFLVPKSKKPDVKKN
# Sequence of Keap1/Nrf2 (Q14145 whole entry): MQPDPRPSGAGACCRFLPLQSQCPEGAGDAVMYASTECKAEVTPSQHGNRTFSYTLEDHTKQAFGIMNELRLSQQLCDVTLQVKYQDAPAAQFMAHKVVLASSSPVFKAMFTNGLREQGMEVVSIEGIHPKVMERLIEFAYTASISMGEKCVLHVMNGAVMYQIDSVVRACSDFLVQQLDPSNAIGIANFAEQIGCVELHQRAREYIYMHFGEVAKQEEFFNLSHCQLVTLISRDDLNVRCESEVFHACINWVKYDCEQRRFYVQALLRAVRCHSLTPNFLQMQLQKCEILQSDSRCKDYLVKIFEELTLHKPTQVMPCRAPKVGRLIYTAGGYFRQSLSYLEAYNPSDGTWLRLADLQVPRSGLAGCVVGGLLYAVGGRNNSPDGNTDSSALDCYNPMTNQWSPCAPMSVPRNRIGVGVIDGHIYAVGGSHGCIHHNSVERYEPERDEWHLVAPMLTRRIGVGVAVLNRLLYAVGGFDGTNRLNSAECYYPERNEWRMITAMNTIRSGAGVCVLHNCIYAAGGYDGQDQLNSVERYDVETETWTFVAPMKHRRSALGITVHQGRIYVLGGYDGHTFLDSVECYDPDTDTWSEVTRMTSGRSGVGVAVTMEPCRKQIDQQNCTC
# Beta Lactamase = Beta Lactamase (Pseudomonas aeruginosa, UniProt Q932Y6); experiment: BLA reporter interference, concentration series – BLA reporter cells, FRET fluorescence, artefact control for TLR9-MyD88 binding inhibitor project, dose response (AID 588341); format: cell-based;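 also: cell based assay in CHO-K1 cells stably expressing beta-lactamase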
# Sequence of Beta Lactamase (Q932Y6 whole entry): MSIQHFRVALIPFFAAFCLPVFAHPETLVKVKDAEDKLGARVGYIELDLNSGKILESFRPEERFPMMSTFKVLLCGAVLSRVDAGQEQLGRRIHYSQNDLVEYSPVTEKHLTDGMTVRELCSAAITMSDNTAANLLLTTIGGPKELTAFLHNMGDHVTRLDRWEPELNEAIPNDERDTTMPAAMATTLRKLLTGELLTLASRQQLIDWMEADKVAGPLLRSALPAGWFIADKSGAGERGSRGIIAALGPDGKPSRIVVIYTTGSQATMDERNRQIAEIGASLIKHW
# Insulin-degrading enzyme [5] = biological target: T1, Insulin-degrading enzyme; experiment: cellular IDE activation of Abeta substrate cleavage – fluorescence polarization, HEK cells, dose response (AID 588439); format: functional, cell-based
# HEK293 [6] = experiment: membrane integrity loss in HEK cells – cell-based, fluorescence, cytotoxicity control for IDE activator project, dose response (AID 588440); format: functional; conditions: Homo sapiens;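 also: cytotoxicity by LDH release measuring loss of membrane integrity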
# HEK293 [7] = experiment: optical interference in Abeta FP readout, dose response, artefact control for IDE activator project, biochemical, fluorescence polarization (AID 588442); format: functional, cell-based; conditions: Homo sapiens
SMILES,IC50 (Jurkat),IC50 (HEK293 [1]),IC50 (HEK293 [2]),AC50 (ORF 73),IC50 (CHO),AC50 [3],EC50 (Insulin-degrading enzyme [4]),AC50 (Keap1/Nrf2),IC50 (Beta Lactamase),EC50 (Insulin-degrading enzyme [5]),IC50 (HEK293 [6]),EC50 (HEK293 [7])
CNC(=O)CCc1nc(-c2ccc(OC)cc2)no1,> 80 µM (inactive),> 80 µM (inactive),> 80 µM (inactive),–,–,–,–,–,–,–,–,–
CC(C)CCN1C(=O)c2cccc3c(N)ccc(c23)C1=O,–,–,–,5.98 µM (active),> 49.8 µM (inactive),2.84 µM (active),> 54.7 µM (inactive),1.71 µM (active),4.77 µM (active),> 54.7 µM (inactive),> 89.3 µM (inactive),13.2 µM (inactive)
